Key:
Sphaerotheca fuliginea = assay: Cucumber Powdery Mildew (CPM) protectant test in the greenhouse; assay type: in vivo; settings: 100 is total disease control, 0 is no disease control; for Cucumber Powdery Mildew (CPM) protectant fungicide data, percent control: 300 g/ha; for pest or weed control at 300 g/ha: Podosphaera fuliginea, topical, 168 h, read-out: Cucumber Powdery Mildew (CPM) protectant fungicide data, percent control
In short: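 Protectant format: one day after spraying with test compound (A/M/W 1:1:2), cotyledon-plus-one-leaf cucumber plants were misted with Sphaerotheca spores at 2×10^5/ml. Greenhouse disease development; percent control scored at day 7 (100 = total, 0 = none).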

Pyricularia oryzae = assay: whole plant or invertebrate; assay type: in vivo; settings: 100 is total disease control, 0 is no disease control; for Rice Blast (RB) protectant fungicide data, percent control: 300 g/ha, greenhouse; for pest or weed control at 300 g/ha: Pyricularia oryzae, topical, 144 h, read-out: Rice Blast (RB) protectant fungicide data, percent control, protectant, 300 g/ha, greenhouse

Which results are given for `C#CCN1CC(=O)N(CC#C)N=C1c1ccc(F)c(Br)c1` [Compound 217]?
Cucumber Powdery Mildew (CPM) protectant fungicide data, percent control (Sphaerotheca fuliginea): 0 percent control; Rice Blast (RB) protectant fungicide data, percent control (Pyricularia oryzae): 85 percent control

With `O=C1CNC(c2ccccc2)=NN1` [Compound 32] as the molecule, how does the “Cucumber Powdery Mildew (CPM) protectant fungicide data, percent control” value (shortened to “Cucumber Powdery Mildew … percent control”) (Sphaerotheca fuliginea) read?
The value was 50 percent control.

What about the “Rice Blast (RB) protectant fungicide data, percent control” value (“Rice Blast … percent control” for short) (Pyricularia oryzae) of the same molecule?
Its value is 75 percent control.

How did the “Cucumber Powdery Mildew … percent control” value (Sphaerotheca fuliginea) turn out when `C#CCN1CC(=O)N(CC#C)N=C1c1cccc(Br)c1` [Compound 226] was run?
Its value is 0 percent control.

What about the “Rice Blast … percent control” value (Pyricularia oryzae) of the same molecule?
The value was 50 percent control.

What does the source list for `C=CC(=O)N1CC(=O)N(CC(F)(F)F)N=C1c1cc(Cl)cc(Cl)c1` [Compound 137]?
Cucumber Powdery Mildew (CPM) protectant fungicide data, percent control (Sphaerotheca fuliginea): 0 percent control; Rice Blast (RB) protectant fungicide data, percent control (Pyricularia oryzae): 85 percent control

`O=C1CNC(c2ccc(Cl)c(Cl)c2)=NN1c1cccc(Cl)c1` [Compound 196] was tested. Which “Cucumber Powdery Mildew … percent control” value (Sphaerotheca fuliginea) did it give?
The value was 0 percent control.

And the “Rice Blast … percent control” value (Pyricularia oryzae)?
Its value is 99 percent control.

For `CCCCN1N=C(c2cc(Br)c(OC)c(Br)c2)NCC1=O` [Compound 120], which “Cucumber Powdery Mildew … percent control” value (Sphaerotheca fuliginea) is on record?
The value was 0 percent control.

What about the “Rice Blast … percent control” value (Pyricularia oryzae) of the same molecule?
Its value is 80 percent control.

What does the source list for `O=C1CNC(c2ccc(Cl)c(Cl)c2)=NN1` [Compound 174]?
Cucumber Powdery Mildew (CPM) protectant fungicide data, percent control (Sphaerotheca fuliginea): 0 percent control; Rice Blast (RB) protectant fungicide data, percent control (Pyricularia oryzae): 75 percent control

What does the source list for `Cc1cccc(N2N=C(c3ccc(OCC(F)(F)F)nc3)NCC2=O)c1` [Compound 188]?
Cucumber Powdery Mildew (CPM) protectant fungicide data, percent control (Sphaerotheca fuliginea): 0 percent control; Rice Blast (RB) protectant fungicide data, percent control (Pyricularia oryzae): 80 percent control

Which results are given for `O=C1CN(CC=CCl)C(c2cc(Cl)cc(Cl)c2)=NN1CC=CCl` (mixture of isomers) [Compound 66]?
Cucumber Powdery Mildew (CPM) protectant fungicide data, percent control (Sphaerotheca fuliginea): 0 percent control; Rice Blast (RB) protectant fungicide data, percent control (Pyricularia oryzae): 50 percent control

`N#CCCn1nc(-c2ccc(-c3ccc([N+](=O)[O-])cc3)cc2)ncc1=O` [Compound 276] was tested. Which “Cucumber Powdery Mildew … percent control” value (Sphaerotheca fuliginea) did it give?
The value was 0 percent control.

And the “Rice Blast … percent control” value (Pyricularia oryzae)?
The value was 85 percent control.

Which “Cucumber Powdery Mildew … percent control” value (Sphaerotheca fuliginea) does the source give for `CCCCN1N=C(c2cc(Cl)ccc2Cl)NCC1=O` [Compound 74] here?
The value was 0 percent control.

What about the “Rice Blast … percent control” value (Pyricularia oryzae) of the same molecule?
The value was 99 percent control.

Which “Cucumber Powdery Mildew … percent control” value (Sphaerotheca fuliginea) does the source give for `COc1c(Br)cc(C2=NN(CC(F)(F)F)C(=O)CN2)cc1Br` [Compound 158] here?
The value was 0 percent control.

And the “Rice Blast … percent control” value (Pyricularia oryzae)?
The value was 85 percent control.

How did the “Cucumber Powdery Mildew … percent control” value (Sphaerotheca fuliginea) turn out when `CCCCN1N=C(c2ccc(OCC)cc2)NCC1=O` [Compound 116] was run?
The value was 0 percent control.

And the “Rice Blast … percent control” value (Pyricularia oryzae)?
The value was 85 percent control.

What does the source list for `CCOC(=O)Cn1nc(-c2cccc(C)c2)ncc1=O` [Compound 275]?
Cucumber Powdery Mildew (CPM) protectant fungicide data, percent control (Sphaerotheca fuliginea): 0 percent control; Rice Blast (RB) protectant fungicide data, percent control (Pyricularia oryzae): 85 percent control

How did the “Cucumber Powdery Mildew … percent control” value (Sphaerotheca fuliginea) turn out when `CCCCCn1nc(-c2cc(Cl)c(C)c(Cl)c2)ncc1=O` [Compound 257] was run?
Its value is 50 percent control.

And the “Rice Blast … percent control” value (Pyricularia oryzae)?
Its value is 95 percent control.

`O=C1CNC(c2ccc(Cl)cc2)=NN1c1ccccn1` [Compound 59] was tested. Which “Cucumber Powdery Mildew … percent control” value (Sphaerotheca fuliginea) did it give?
The value was 0 percent control.

And the “Rice Blast … percent control” value (Pyricularia oryzae)?
Its value is 50 percent control.

`O=C1CNC(c2ccc(F)c(Cl)c2)=NN1CC(F)(F)F` [Compound 1, 1-(2,2,2-trifluoroethyl)-3-(3-chloro-4-fluorophenyl)-4,5-dihydro-1,2,4-triazin-6-one] was tested. Which pest or weed control at 300 g/ha (Sphaerotheca fuliginea) did it give?
The pest or weed control at 300 g/ha was 80%.

What about the pest or weed control at 300 g/ha (Pyricularia oryzae) of the same molecule?
Its pest or weed control at 300 g/ha is 99%.

Which results are given for `COC(=O)N1CC(=O)N(CC(F)(F)F)N=C1c1cc(Cl)cc(Cl)c1` [Compound 71]?
Cucumber Powdery Mildew (CPM) protectant fungicide data, percent control (Sphaerotheca fuliginea): 50 percent control; Rice Blast (RB) protectant fungicide data, percent control (Pyricularia oryzae): 75 percent control

`O=C1CNC(c2ccccc2Cl)=NN1CC(F)(F)F` [Compound 97] was tested. Which “Cucumber Powdery Mildew … percent control” value (Sphaerotheca fuliginea) did it give?
Its value is 85 percent control.

What about the “Rice Blast … percent control” value (Pyricularia oryzae) of the same molecule?
The value was 0 percent control.

Which “Cucumber Powdery Mildew … percent control” value (Sphaerotheca fuliginea) does the source give for `CCCCOc1ccc(C2=NN(CCC#N)C(=O)CN2)cc1` [Compound 160] here?
The value was 0 percent control.

What about the “Rice Blast … percent control” value (Pyricularia oryzae) of the same molecule?
Its value is 75 percent control.

How did the “Cucumber Powdery Mildew … percent control” value (Sphaerotheca fuliginea) turn out when `C#CCN1CC(=O)N(CC(F)(F)F)N=C1c1cccc(C(F)(F)F)c1` [Compound 89] was run?
The value was 0 percent control.

What about the “Rice Blast … percent control” value (Pyricularia oryzae) of the same molecule?
Its value is 75 percent control.

How did the “Cucumber Powdery Mildew … percent control” value (Sphaerotheca fuliginea) turn out when `CCCCN1N=C(C)NC(c2cccc(OC)c2)C1=O` (centres unmarked) [Compound 80] was run?
The value was 50 percent control.

And the “Rice Blast … percent control” value (Pyricularia oryzae)?
Its value is 0 percent control.

Which “Cucumber Powdery Mildew … percent control” value (Sphaerotheca fuliginea) does the source give for `CCCCN1N=C(c2ccc(Cl)c(Cl)c2)N(C(=O)C(=O)OC)CC1=O` [Compound 85] here?
Its value is 50 percent control.

What about the “Rice Blast … percent control” value (Pyricularia oryzae) of the same molecule?
Its value is 100 percent control.

Which “Cucumber Powdery Mildew … percent control” value (Sphaerotheca fuliginea) does the source give for `CCOC(=O)CN1N=C(c2cccc(C)c2)NCC1=O` [Compound 165] here?
Its value is 0 percent control.

And the “Rice Blast … percent control” value (Pyricularia oryzae)?
The value was 80 percent control.

Which “Cucumber Powdery Mildew … percent control” value (Sphaerotheca fuliginea) does the source give for `C#CCN1CC(=O)N(CC#C)N=C1c1cccc(C(F)(F)F)c1` [Compound 87] here?
The value was 0 percent control.

And the “Rice Blast … percent control” value (Pyricularia oryzae)?
The value was 90 percent control.

Which pest or weed control at 300 g/ha (Sphaerotheca fuliginea) does the source give for `COC(=O)SN1CC(=O)N(CC(F)(F)F)N=C1c1cc(Cl)cc(Cl)c1` [Compound 14, 1-(2,2,2-trifluoroethyl)-3-(3,5-dichlorophenyl)-4-(methoxycarbonylthio)-4,5-dihydro-1,2,4-triazin-6-one] here?
The pest or weed control at 300 g/ha was 85%.

What about the pest or weed control at 300 g/ha (Pyricularia oryzae) of the same molecule?
The pest or weed control at 300 g/ha was 100%.

What does the source list for `COC1NC(c2cc(Cl)cc(Cl)c2)=NN(CC(F)(F)F)C1=O` (centres unmarked) [Compound 18, 1-(2,2,2-Trifluoroethyl)-3-(3,5-dichlorophenyl)-5-methoxy-4,5-dihydro-1,2,4-triazin-6-one]?
pest or weed control at 300 g/ha (Sphaerotheca fuliginea): 75%; pest or weed control at 300 g/ha (Pyricularia oryzae): 95%

Which “Cucumber Powdery Mildew … percent control” value (Sphaerotheca fuliginea) does the source give for `COc1cccc(C2=NN(CC(F)(F)F)C(=O)CN2)c1` [Compound 46] here?
The value was 0 percent control.

What about the “Rice Blast … percent control” value (Pyricularia oryzae) of the same molecule?
The value was 80 percent control.

Which results are given for `CCCCN1N=C(c2ccc(Cl)cc2Cl)NCC1=O` [Compound 2, 1-butyl-3-(2,4-dichlorophenyl)-4,5-dihydro-1,2,4-triazin-6-one]?
pest or weed control at 300 g/ha (Sphaerotheca fuliginea): 85%; pest or weed control at 300 g/ha (Pyricularia oryzae): 95%

With `CCCCN1N=C(c2cccc(C(F)(F)F)c2)NCC1=O` [Compound 115] as the molecule, how does the “Cucumber Powdery Mildew … percent control” value (Sphaerotheca fuliginea) read?
The value was 50 percent control.

And the “Rice Blast … percent control” value (Pyricularia oryzae)?
Its value is 100 percent control.

How did the “Cucumber Powdery Mildew … percent control” value (Sphaerotheca fuliginea) turn out when `CCCCn1nc(-c2ccccc2O)ncc1=O` [Compound 287] was run?
Its value is 0 percent control.

What about the “Rice Blast … percent control” value (Pyricularia oryzae) of the same molecule?
Its value is 80 percent control.

`O=C1CNC(c2cc(Cl)cc(Cl)c2)=NN1CC=CCl` (mixture of isomers) [Compound 67] was tested. Which “Cucumber Powdery Mildew … percent control” value (Sphaerotheca fuliginea) did it give?
Its value is 80 percent control.

And the “Rice Blast … percent control” value (Pyricularia oryzae)?
Its value is 99 percent control.

Which results are given for `CCOC(=O)N1N=C(c2cccc(Cl)c2)NCC1=O` [Compound 198]?
Cucumber Powdery Mildew (CPM) protectant fungicide data, percent control (Sphaerotheca fuliginea): 0 percent control; Rice Blast (RB) protectant fungicide data, percent control (Pyricularia oryzae): 80 percent control

`CCc1ccc(C2=NN(CC(F)(F)F)C(=O)CN2)cc1` [Compound 150] was tested. Which “Cucumber Powdery Mildew … percent control” value (Sphaerotheca fuliginea) did it give?
Its value is 50 percent control.

What about the “Rice Blast … percent control” value (Pyricularia oryzae) of the same molecule?
The value was 100 percent control.

What does the source list for `CCCCN1N=C(C)NC(c2cccc(C)c2)C1=O` (centres unmarked) [Compound 77]?
Cucumber Powdery Mildew (CPM) protectant fungicide data, percent control (Sphaerotheca fuliginea): 50 percent control; Rice Blast (RB) protectant fungicide data, percent control (Pyricularia oryzae): 0 percent control

With `Cc1ccccc1-c1nn(CC(F)(F)F)c(=O)c(=O)[nH]1` [Compound 291] as the molecule, how does the pest or weed control at 300 g/ha (Sphaerotheca fuliginea) read?
The pest or weed control at 300 g/ha was 0%.

What about the pest or weed control at 300 g/ha (Pyricularia oryzae) of the same molecule?
The pest or weed control at 300 g/ha was 80%.

What does the source list for `C=CCOC(=O)N1CC(=O)N(CCCC)N=C1c1cc(Cl)cc(Cl)c1` [Compound 132]?
Cucumber Powdery Mildew (CPM) protectant fungicide data, percent control (Sphaerotheca fuliginea): 50 percent control; Rice Blast (RB) protectant fungicide data, percent control (Pyricularia oryzae): 85 percent control

With `CCCCN1N=C(c2cc(Cl)cc(Cl)c2)N(C(=O)SC)CC1=O` [Compound 129] as the molecule, how does the “Cucumber Powdery Mildew … percent control” value (Sphaerotheca fuliginea) read?
The value was 75 percent control.

And the “Rice Blast … percent control” value (Pyricularia oryzae)?
The value was 50 percent control.

For `O=C1CNC(c2ccc(F)c(Br)c2)=NN1CC1CC1` [Compound 220], which “Cucumber Powdery Mildew … percent control” value (Sphaerotheca fuliginea) is on record?
Its value is 80 percent control.

And the “Rice Blast … percent control” value (Pyricularia oryzae)?
The value was 100 percent control.

With `O=c1cnc(-c2ccc(F)c(Br)c2)nn1CC(F)(F)F` [Compound 290] as the molecule, how does the “Cucumber Powdery Mildew … percent control” value (Sphaerotheca fuliginea) read?
Its value is 50 percent control.

What about the “Rice Blast … percent control” value (Pyricularia oryzae) of the same molecule?
The value was 100 percent control.

From patent US7494996B2 (priority 2000, dated 2009)
